Test results taken from patent US20100227313A1, “Methods and Compositions for Determining Altered Susceptibility of HIV-1 to Protease Inhibitor Treatment” (priority 2007, published 2010).

System: HIV-1
Assay: Resistance test vector (PHENOSENSE) phenotypic susceptibility assay, fold change in IC50, correlated with genotype (Fisher's Exact test, odds ratio)
Format: cell-based, human immunodeficiency virus type 1
Conditions: for Odds Ratio: reduced susceptibility (FC>2)
Description: See Petropoulos et al., 2000, Antimicrob. Agents Chemother. 44:920-928; U.S. Pat. Nos. 5,837,464 and 6,242,187. PHENOSENSE™ is a phenotypic assay that achieves the benefits of phenotypic testing and overcomes the drawbacks of previous assays.
PHENOSENSE™ can obtain results with only one round of viral replication, thereby avoiding selection of subpopulations of virus that can occur during preparation of viral stocks required for assays that rely on fully infectious virus.
A resistance test vector (“RTV”) can then be constructed by incorporating the amplified viral gene sequences into a replication defective viral vector by using any method known in the art of incorporating gene sequences into a vector. In one embodiment, restrictions enzymes and conventional cloning methods are used. See Sambrook et al., 2001, Molecular Cloning: A Laboratory Manual, Cold Spring Harbor Laboratory, 3rd ed., NY; and Ausubel et al., 1989, Current Protocols in Molecular Biology, Greene Publishing Associates and Wiley Interscience, NY. In a preferred embodiment, ApaI and PinAI restriction enzymes are used. Preferably, the replication defective viral vector is the indicator gene viral vector (“IGVV”). In a preferred embodiment, the viral vector contains a means for detecting replication of the RTV. Preferably, the viral vector contains a luciferase expression cassette.
The assay can be performed by first co-transfecting host cells with RTV DNA and a plasmid that expresses the envelope proteins of another retrovirus, for example, amphotropic murine leukemia virus (MLV). Following transfection, viral particles can be harvested from the cell culture and used to infect fresh target cells in the presence of varying amounts of anti-viral drug(s). The completion of a single round of viral replication in the fresh target cells can be detected by the means for detecting replication contained in the vector. In a preferred embodiment, the completion of a single round of viral replication results in the production of luciferase. By monitoring the amount of, e.g., luciferase activity in the presence of the varying amounts of antiviral drug(s), a resistance curve can be constructed by plotting luciferase activity versus drug concentration. The susceptibility of an HIV, or population of HIV, can be determined by measuring the concentration of antiviral drug at which the luciferase activity detected is half-maximal. This number, the IC50, provides a standard and convenient measure of drug resistance.
Patient derived segment(s) corresponding to the HIV protease and reverse transcriptase coding regions were amplified by the reverse transcription polymerase chain reaction method (RT PCR) using viral RNA isolated from viral particles present in the plasma or serum of HIV infected individuals as follows. Viral RNA was isolated from the plasma or serum using oligo-dT magnetic beads (Dynal Biotech, Oslo, Norway), followed by washing and elution of viral RNA. The RT PCR protocol was divided into two steps. A retroviral reverse transcriptase (e.g. Moloney MuLV reverse transcriptase (Roche Molecular Systems, Inc., Branchburg, N.J.; Invitrogen, Carlsbad, Calif.), or avian myeloblastosis virus (AMV) reverse transcriptase, (Boehringer Mannheim, Indianapolis, Ind.) was used to copy viral RNA into cDNA. The cDNA was then amplified using a thermostable DNA polymerase (e.g. Taq (Roche Molecular Systems, Inc., Branchburg, N.J.), Tth (Roche Molecular Systems, Inc., Branchburg, N.J.), PRIMEZYME™ (isolated from Thermus brockianus, Biometra, Gottingen, Germany)) or a combination of thermostable polymerases as described for the performance of “long PCR” (Barnes, W.M., 1994, Proc. Natl. Acad. Sci, USA 91, 2216 20) (e.g. Expand High Fidelity PCR System (Taq+Pwo), (Boehringer Mannheim. Indianapolis, Ind.); GENEAMP XL™ PCR kit (Tth+Vent), (Roche Molecular Systems, Inc., Branchburg, N.J.); or […] II®, Clontech, Palo Alto, Calif.)

**Q.** With CC(C)CN(C[C@@H](O)[C@H](Cc1ccccc1)NC(=O)O[C@H]1CCOC1)S(=O)(=O)c1ccc(N)cc1 [APV, amprenavir] as the molecule, how does the “correlation of FC in susceptibility with the FC in susceptibility for DRV” value (2862 clinical samples, FC relative to wild-type (NL4-3), FIG. 1) read?
**A.** tightly correlated

**Q.** What about the “Odds Ratio” value (mutation A22V in PR) of the same molecule?
**A.** 4.43

**Q.** And the “Odds Ratio” value (mutation A71I in PR)?
**A.** 1.93

**Q.** What about the “Odds Ratio” value (mutation A71V in PR) of the same molecule?
**A.** 1.62

**Q.** What about the “Odds Ratio” value (mutation A431I in gag) of the same molecule?
**A.** 21.52

**Q.** And the “Odds Ratio” value (mutation A431V in gag)?
**A.** 3.21

**Q.** What about the “Odds Ratio” value (mutation C67F in PR) of the same molecule?
**A.** 9.28

**Q.** And the “Odds Ratio” value (mutation C95F in PR)?
**A.** 4.96

**Q.** What about the “Odds Ratio” value (mutation D60E in PR) of the same molecule?
**A.** 1.51

**Q.** What about the “Odds Ratio” value (mutation E34Q in PR) of the same molecule?
**A.** 4.54

**Q.** And the “Odds Ratio” value (mutation E35D in PR)?
**A.** 1.27

**Q.** What about the “Odds Ratio” value (mutation E35N in PR) of the same molecule?
**A.** 10.13

**Q.** What about the “Odds Ratio” value (mutation E428D in gag) of the same molecule?
**A.** 1.94

**Q.** And the “Odds Ratio” value (mutation E467K in gag)?
**A.** 2.39

**Q.** And the “Odds Ratio” value (mutation E468K in gag)?
**A.** 2.98

**Q.** What about the “Odds Ratio” value (mutation F53L in PR) of the same molecule?
**A.** 4.91

**Q.** What about the “Odds Ratio” value (mutation F53Y in PR) of the same molecule?
**A.** 10.44

**Q.** What about the “Odds Ratio” value (mutation F463S in gag) of the same molecule?
**A.** 7.28

**Q.** What about the “Odds Ratio” value (mutation F463V in gag) of the same molecule?
**A.** 2.29

**Q.** What about the “Odds Ratio” value (mutation F465L in gag) of the same molecule?
**A.** 1.65

**Q.** And the “Odds Ratio” value (mutation F465S in gag)?
**A.** 2.17

**Q.** What about the “Odds Ratio” value (mutation G16A in PR) of the same molecule?
**A.** 4.49

**Q.** What about the “Odds Ratio” value (mutation G73A in PR) of the same molecule?
**A.** 5.85

**Q.** And the “Odds Ratio” value (mutation G73C in PR)?
**A.** 2.98

**Q.** And the “Odds Ratio” value (mutation G73S in PR)?
**A.** 2.69

**Q.** And the “Odds Ratio” value (mutation G73T in PR)?
**A.** 21.84

**Q.** And the “Odds Ratio” value (mutation H69R in PR)?
**A.** 3.98

**Q.** And the “Odds Ratio” value (mutation H441Q in gag)?
**A.** 3.05

**Q.** What about the “Odds Ratio” value (mutation I13V in PR) of the same molecule?
**A.** 1.41

**Q.** What about the “Odds Ratio” value (mutation I47V in PR) of the same molecule?
**A.** 98.74

**Q.** And the “Odds Ratio” value (mutation I54A in PR)?
**A.** 7.70

**Q.** What about the “Odds Ratio” value (mutation I54L in PR) of the same molecule?
**A.** 8.74

**Q.** And the “Odds Ratio” value (mutation I54M in PR)?
**A.** 32.44

**Q.** What about the “Odds Ratio” value (mutation I54V in PR) of the same molecule?
**A.** 2.67

**Q.** And the “Odds Ratio” value (mutation I62V in PR)?
**A.** 1.28

**Q.** And the “Odds Ratio” value (mutation I66F in PR)?
**A.** 4.19

**Q.** And the “Odds Ratio” value (mutation I66V in PR)?
**A.** 4.16

**Q.** What about the “Odds Ratio” value (mutation I72L in PR) of the same molecule?
**A.** 3.51

**Q.** What about the “Odds Ratio” value (mutation I72V in PR) of the same molecule?
**A.** 1.51

**Q.** And the “Odds Ratio” value (mutation I84V in PR)?
**A.** 58.10

**Q.** And the “Odds Ratio” value (mutation I85V in PR)?
**A.** 3.21

**Q.** What about the “Odds Ratio” value (mutation I437V in gag) of the same molecule?
**A.** 3.51

**Q.** And the “Odds Ratio” value (mutation I479T in gag)?
**A.** 1.28

**Q.** And the “Odds Ratio” value (mutation K20R in PR)?
**A.** 2.41

**Q.** What about the “Odds Ratio” value (mutation K20T in PR) of the same molecule?
**A.** 1.55

**Q.** And the “Odds Ratio” value (mutation K20V in PR)?
**A.** 4.43

**Q.** And the “Odds Ratio” value (mutation K43T in PR)?
**A.** 7.24

**Q.** And the “Odds Ratio” value (mutation K55R in PR)?
**A.** 4.17

**Q.** What about the “Odds Ratio” value (mutation L10F in PR) of the same molecule?
**A.** 3.36

**Q.** And the “Odds Ratio” value (mutation L10I in PR)?
**A.** 1.95

**Q.** And the “Odds Ratio” value (mutation L10V in PR)?
**A.** 1.62

**Q.** And the “Odds Ratio” value (mutation L19P in PR)?
**A.** 6.49

**Q.** And the “Odds Ratio” value (mutation L23I in PR)?
**A.** 4.81

**Q.** What about the “Odds Ratio” value (mutation L24F in PR) of the same molecule?
**A.** 11.71

**Q.** What about the “Odds Ratio” value (mutation L33F in PR) of the same molecule?
**A.** 12.07

**Q.** What about the “Odds Ratio” value (mutation L63P in PR) of the same molecule?
**A.** 1.10

**Q.** What about the “Odds Ratio” value (mutation L89I in PR) of the same molecule?
**A.** 2.71

**Q.** What about the “Odds Ratio” value (mutation L89M in PR) of the same molecule?
**A.** 1.95

**Q.** And the “Odds Ratio” value (mutation L90M in PR)?
**A.** 1.24

**Q.** And the “Odds Ratio” value (mutation L449F in gag)?
**A.** 1.46

**Q.** What about the “Odds Ratio” value (mutation L449V in gag) of the same molecule?
**A.** 9.49

**Q.** And the “Odds Ratio” value (mutation M36I in PR)?
**A.** 1.48

**Q.** And the “Odds Ratio” value (mutation M36L in PR)?
**A.** 1.98

**Q.** What about the “Odds Ratio” value (mutation M46I in PR) of the same molecule?
**A.** 2.32

**Q.** And the “Odds Ratio” value (mutation M46L in PR)?
**A.** 2.48

**Q.** What about the “Odds Ratio” value (mutation M423I in gag) of the same molecule?
**A.** 2.07

**Q.** What about the “Odds Ratio” value (mutation N37D in PR) of the same molecule?
**A.** 1.55

**Q.** What about the “Odds Ratio” value (mutation P79A in PR) of the same molecule?
**A.** 18.04

**Q.** What about the “Odds Ratio” value (mutation P79S in PR) of the same molecule?
**A.** 9.49

**Q.** What about the “Odds Ratio” value (mutation P453I in gag) of the same molecule?
**A.** 4.11

**Q.** What about the “Odds Ratio” value (mutation P453V in gag) of the same molecule?
**A.** 9.49

**Q.** And the “Odds Ratio” value (mutation P459T in gag)?
**A.** 2.53

**Q.** And the “Odds Ratio” value (mutation Q58E in PR)?
**A.** 4.49

**Q.** And the “Odds Ratio” value (mutation Q61N in PR)?
**A.** 5.22

**Q.** What about the “Odds Ratio” value (mutation Q92K in PR) of the same molecule?
**A.** 7.78

**Q.** And the “Odds Ratio” value (mutation R452K in gag)?
**A.** 2.49

**Q.** What about the “Odds Ratio” value (mutation R452S in gag) of the same molecule?
**A.** 2.87

**Q.** And the “Odds Ratio” value (mutation S451T in gag)?
**A.** 1.85

**Q.** What about the “Odds Ratio” value (mutation S462N in gag) of the same molecule?
**A.** 2.19

**Q.** And the “Odds Ratio” value (mutation S488A in gag)?
**A.** 1.79

**Q.** And the “Odds Ratio” value (mutation T4A in PR)?
**A.** 9.49

**Q.** What about the “Odds Ratio” value (mutation T4P in PR) of the same molecule?
**A.** 4.01

**Q.** What about the “Odds Ratio” value (mutation T4S in PR) of the same molecule?
**A.** 8.07

**Q.** What about the “Odds Ratio” value (mutation T12P in PR) of the same molecule?
**A.** 2.37

**Q.** What about the “Odds Ratio” value (mutation T74P in PR) of the same molecule?
**A.** 27.85

**Q.** What about the “Odds Ratio” value (mutation T91S in PR) of the same molecule?
**A.** 11.16

**Q.** And the “Odds Ratio” value (mutation V11I in PR)?
**A.** 23.10

**Q.** And the “Odds Ratio” value (mutation V32I in PR)?
**A.** 62.34

**Q.** And the “Odds Ratio” value (mutation V82A in PR)?
**A.** 1.98

**Q.** What about the “Odds Ratio” value (mutation V82C in PR) of the same molecule?
**A.** 9.18

**Q.** What about the “Odds Ratio” value (mutation V82F in PR) of the same molecule?
**A.** 11.71

**Q.** And the “Odds Ratio” value (mutation V82I in PR)?
**A.** 2.31

**Q.** What about the “Odds Ratio” value (mutation V82L in PR) of the same molecule?
**A.** 6.33

**Q.** And the “Odds Ratio” value (mutation V82T in PR)?
**A.** 3.06
